Results from patent US20110104074A1, “METHODS FOR TARGETED CANCER TREATMENT AND DETECTION” (UNIVERSITY OF LOUISVILLE RESEARCH FOUNDATION, INC., priority 2008, published 2011).
One block for each compound: values may come before it. Ends that are not written are not given here.

Columns and labels:
[1] = tested on: A2780 ovarian tumor cells; assay: Uptake of doxorubicin by ovarian tumor cells in vitro (fluorometric); type: cell-based; details: 5 nM DOX
Experimental: To determine the uptake of doxorubicin by ovarian tumor cells in vitro, ovarian tumor cells (A2780) were plated in 6-well plates. After 24 hrs of incubation, the medium was replaced with fresh medium and cells were then treated with PBS, free DOX (DOX concentration=5 nM), DOX-NPs (5 nM DOX), or LHRH-NP-DOXs (5 nM DOX). After 2, 4, and 24 hrs of incubation, cells were rinsed with PBS and scrapped off the plates and centrifuged. The pellets were resuspended in lysis buffer [[…] sucrose, 5 mM TrisHCl, 1 mM MgSO4, 1 mM CaCl2 (pH 7.6)] and homogenized using a polytron homogenizer. A 200:1 dilution of the homogenate from each sample was then transferred in triplicate to 2 ml centrifuge tubes and 100:1 of 10% (v/v) Triton X-100, 200:1 of water, and 1,500:1 of acidified isopropanol (0.75 N HCl) was added. The tubes were vortexed to ensure complete mixing and doxorubicin was extracted overnight at −20° C. The next day, the samples were thawed to room temperature, and then centrifuged at 15,000×g for 20 min. The supernatant was collected. Doxorubicin was measured fluorometrically (EX485 nm/EM590 nm) as described previously (3).

[2] = tested on: ovarian epithelial tumor cells lines (A2780, CAOV3, and UCI), and a cisplatin-resistant cell line (A2780/CP70); assay: Cell viability (MTT, 96-titer kit) in ovarian tumor cell lines; details: concentrations from 1 to 5 nM; cisplatin-sensitive and cisplatin-resistant cell lines
[3] = biological target: T1, LHRH receptor (Mus musculus, UniProt Q01776); assay: pCRE-luciferase reporter assay in LβT2 cells for binding to cell surface LHRH receptors; type: cell-based; details: 6 hrs treatment, read-out: binding affinities (IC50 values)
T1 construct: endogenous in cells; host or cells: LβT2 mouse gonadotrope tumor cell line
T1 sequence (Q01776 1-327): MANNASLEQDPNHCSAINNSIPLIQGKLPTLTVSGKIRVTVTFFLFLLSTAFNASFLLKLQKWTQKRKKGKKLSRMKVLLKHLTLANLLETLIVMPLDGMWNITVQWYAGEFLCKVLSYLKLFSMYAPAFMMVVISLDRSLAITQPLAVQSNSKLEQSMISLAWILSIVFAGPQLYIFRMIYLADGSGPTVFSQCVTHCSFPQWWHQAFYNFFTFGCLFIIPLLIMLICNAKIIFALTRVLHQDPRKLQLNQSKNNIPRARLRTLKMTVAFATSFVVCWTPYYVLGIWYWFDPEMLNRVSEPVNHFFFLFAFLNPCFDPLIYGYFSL
Experimental: To determine if LHRH, when conjugated to gold particles or FNPs, retained its binding affinity to the luteinizing hormone-releasing hormone receptor and its biological activity, the binding of LHRH, LHRH-NP-DOXs, and LHRH-FNP-DOXs to cell surface LHRH receptors was first examined For this purpose, a mouse gonadotrope tumor cell line (LβT2) was used that expresses high levels of high affinity LHRH receptors (82). The LβT2 cells were plated on 6-well plates. After 24 hrs, the cells were transfected with a reporter gene construct, pCRE-luciferase plasmid, as described previously (82). After 24 hrs of transfection, the medium was replaced with serum free medium, followed by incubation for 4 hrs, and then treatment of the cells with various concentrations of LHRH or LHRH-NP-DOXs for 6 hrs. Cells were then lysed and assayed for luciferase activity using a luciferase assay kit (Promega, Madison, Wis.). Binding of LHRH or LHRH-NP-DOX particles was calculated and compared as described previously (82). Experiments were repeated three times for every new preparation.

Compound: COc1cccc2c1C(=O)c1c(O)c3c(c(O)c1C2=O)C[C@@](O)(C(=O)CO)C[C@@H]3O[C@H]1C[C@H](N)[C@H](O)[C@H](C)O1 [DOX, doxorubicin, reference compound]
doxorubicin found in cells compared to LHRH-NP-DOXs ([1]; after 24 hrs): significantly lower
doxorubicin found in cells ([1]; within 4 hrs): no detectable amount
efficacy on cell death [2]: ineffective

IC50 [3]: 100 pM
Compound: CC(C)C[C@H](NC(=O)[C@@H](Cc1c[nH]c2ccccc12)NC(=O)[C@H](Cc1ccc(O)cc1)NC(=O)[C@H](CO)NC(=O)[C@H](Cc1c[nH]c2ccccc12)NC(=O)[C@H](Cc1c[nH]cn1)NC(=O)[C@@H]1CCC(=O)N1)C(=O)N[C@@H](CCCNC(=N)N)C(=O)N1CCC[C@H]1C(=O)NCC(N)=O [LHRH, p-Glu-His-Trp-Ser-Tyr-D-Trp-Leu-Arg-Gly-NH2, reference compound]
efficacy on cell death [2]: ineffective

Compound: LHRH-DOX (QHWSYGLRPG; also: doxorubicin conjugate; UniProt P01148 24-33, looked up)
efficacy on cell death [2]: ineffective
